From publication PMC11952451 (bioRxiv, 2025)
Entries after “also recorded” stand apart in the source; their conditions may differ.

Columns and labels:
viability = settings: some effects on DNA damage response and mutagenesis; cited from earlier work
B. subtilis DnaN = molecular target: T1, B. subtilis DnaN (Bacillus subtilis, UniProt P05649); format: binding
T1 sequence (P05649 1-378): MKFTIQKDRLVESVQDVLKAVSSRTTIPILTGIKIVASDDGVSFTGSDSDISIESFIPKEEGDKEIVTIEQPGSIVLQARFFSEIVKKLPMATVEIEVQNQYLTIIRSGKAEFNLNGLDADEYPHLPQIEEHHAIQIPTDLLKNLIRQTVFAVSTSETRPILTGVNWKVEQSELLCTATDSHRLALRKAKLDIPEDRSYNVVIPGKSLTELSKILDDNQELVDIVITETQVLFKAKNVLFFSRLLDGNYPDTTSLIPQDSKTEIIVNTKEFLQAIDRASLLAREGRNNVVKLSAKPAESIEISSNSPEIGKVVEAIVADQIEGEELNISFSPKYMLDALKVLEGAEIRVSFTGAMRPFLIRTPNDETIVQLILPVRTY

E. coli clamp = settings: cited from earlier work

QLSLPL [εL]
effect on viability (viability): no effect on viability

FAM-Ahx-DDAMGLALDE-NH2
binding (FP response) (B. subtilis DnaN; pH 7.5): lack of binding; also recorded: deficient in clamp binding in FP assays

ATSMAF [εQ]
effect on viability (viability): no effect on viability

QLSLF
affinity class in words (E. coli clamp): submicromolar affinity
affinity class in words (B. subtilis DnaN): only micromolar affinity
